Test results as given in patent US20090099062A1 (priority 2007, published 2009).

Experiments:
Assay type in all cases: cell-based
SW480 = assay: Cell viability (CellTiter-Glo), SW480; settings: Homo sapiens; SW480, 48 hr
Procedure: (§1) Cancer cell growth, viability, and apoptosis assays. HCT116, SW620, SW480, MDA-MB-231 cancer lines were maintained according to ATCC guidelines. For cell growth and viability assays, cells were seeded at 2000 cells/100 μl/well in 96-well plates. Cell number was measured at different time points using CellTiter-Glo® Luminescent Cell Viability Assay (Promega). For apoptosis assays, cells were seeded at 5000 cells/100 μl/well in 96-well plates. Drug was added for 24 hr and Caspase-3 and -7 activities were measured using Apo-ONE® Homogeneous Caspase-3/7 Assay (Promega).

[1] = system: Wnt-mediated gene transcription; assay: Topflash reporter assay in HEK 293 cells; settings: Homo sapiens, HEK293; HEK 293 cells stimulated with Wnt3a, Topflash luciferase; read-out: EC50, inhibition of Wnt-mediated transcription
Procedure: Topflash reporter assay. HEK 293 cells stably expressing 8× Supertopflash were seeded in quadruplicate at 15,000 cells/well/100 μl of medium in 96 well-plate. […] Cells were lysed in passive lysis buffer (Promega), and luciferase was measured according to Promega's Steady-Glo protocol.

MDA-MB-231 = assay: Cell viability (CellTiter-Glo), MDA-MB-231; settings: Homo sapiens; MDA-MB-231, 48 hr
Procedure: as §1

SW620 = assay: Cell viability (CellTiter-Glo), SW620; settings: Homo sapiens, SW-620; SW620, 48 hr
Procedure: as §1

Measured: EC50

Cc1cc(/C=C/c2ccc3cc(N(C)C)ccc3[n+]2C)c(C)n1-c1ccccc1 [pyrvinium, pyrvinium pamoate]
< 0.05 µM: all assays above
